Among the data in ChEMBL document CHEMBL1139023, “The reversed binding of beta-phenethylamine inhibitors of DPP-IV: X-ray structures and properties of novel fragment and elaborated inhibitors” (Bioorg Med Chem Lett, 2006) are IC50 and inhibition values, retold here.

Test [1] addresses Dipeptidyl peptidase 4 (Sus scrofa, UniProt P22411). As to the kind of experiment: (§1) Inhibition of DPP4 by continuous fluorimetric assay.
For test [2], the target named is Dipeptidyl peptidase 4 (Homo sapiens, UniProt P27487). The description is as §1.
Test [3] concerns the target Dipeptidyl peptidase 4 (Sus scrofa) (UniProt P22411). Briefly: Inhibition of DPP4 by continuous fluorimetric assay at 100 nM.

A word on the pIC50: it is −log10 of the IC50, conventionally taken in molar units. Lower therefore signals a large IC50. Usually inhibition stands for the drop in the measured response relative to a control, in per cent.

Molecules are shown by their SMILES. pIC50: −log10 of the molar value.

Dipeptidyl peptidase 4 (Sus scrofa, UniProt P22411), sequence (P22411 whole entry): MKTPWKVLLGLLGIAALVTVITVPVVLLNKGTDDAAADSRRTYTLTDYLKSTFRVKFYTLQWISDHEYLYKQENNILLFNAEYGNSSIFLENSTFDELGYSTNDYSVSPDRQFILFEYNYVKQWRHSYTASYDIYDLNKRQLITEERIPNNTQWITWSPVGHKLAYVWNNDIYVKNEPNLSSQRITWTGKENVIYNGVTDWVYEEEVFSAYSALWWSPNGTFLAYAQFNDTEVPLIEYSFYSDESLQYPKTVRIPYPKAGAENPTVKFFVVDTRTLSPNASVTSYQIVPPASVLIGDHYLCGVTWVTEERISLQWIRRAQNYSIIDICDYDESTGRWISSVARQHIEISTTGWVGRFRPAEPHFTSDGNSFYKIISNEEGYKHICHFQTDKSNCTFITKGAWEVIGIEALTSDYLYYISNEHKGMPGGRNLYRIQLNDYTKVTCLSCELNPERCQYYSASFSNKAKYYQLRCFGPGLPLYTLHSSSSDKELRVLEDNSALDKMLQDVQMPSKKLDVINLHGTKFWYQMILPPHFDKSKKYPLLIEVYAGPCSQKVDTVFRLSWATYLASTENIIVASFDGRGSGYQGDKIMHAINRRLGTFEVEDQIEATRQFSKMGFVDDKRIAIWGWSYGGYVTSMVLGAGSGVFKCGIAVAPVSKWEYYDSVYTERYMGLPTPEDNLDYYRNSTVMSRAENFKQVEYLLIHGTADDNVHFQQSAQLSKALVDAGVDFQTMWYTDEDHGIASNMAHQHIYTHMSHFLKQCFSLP
Dipeptidyl peptidase 4 (Sus scrofa), sequence (P22411 whole entry, looked up): as the sequence (P22411 whole entry) above
Dipeptidyl peptidase 4 (Homo sapiens, UniProt P27487), sequence (P27487 whole entry): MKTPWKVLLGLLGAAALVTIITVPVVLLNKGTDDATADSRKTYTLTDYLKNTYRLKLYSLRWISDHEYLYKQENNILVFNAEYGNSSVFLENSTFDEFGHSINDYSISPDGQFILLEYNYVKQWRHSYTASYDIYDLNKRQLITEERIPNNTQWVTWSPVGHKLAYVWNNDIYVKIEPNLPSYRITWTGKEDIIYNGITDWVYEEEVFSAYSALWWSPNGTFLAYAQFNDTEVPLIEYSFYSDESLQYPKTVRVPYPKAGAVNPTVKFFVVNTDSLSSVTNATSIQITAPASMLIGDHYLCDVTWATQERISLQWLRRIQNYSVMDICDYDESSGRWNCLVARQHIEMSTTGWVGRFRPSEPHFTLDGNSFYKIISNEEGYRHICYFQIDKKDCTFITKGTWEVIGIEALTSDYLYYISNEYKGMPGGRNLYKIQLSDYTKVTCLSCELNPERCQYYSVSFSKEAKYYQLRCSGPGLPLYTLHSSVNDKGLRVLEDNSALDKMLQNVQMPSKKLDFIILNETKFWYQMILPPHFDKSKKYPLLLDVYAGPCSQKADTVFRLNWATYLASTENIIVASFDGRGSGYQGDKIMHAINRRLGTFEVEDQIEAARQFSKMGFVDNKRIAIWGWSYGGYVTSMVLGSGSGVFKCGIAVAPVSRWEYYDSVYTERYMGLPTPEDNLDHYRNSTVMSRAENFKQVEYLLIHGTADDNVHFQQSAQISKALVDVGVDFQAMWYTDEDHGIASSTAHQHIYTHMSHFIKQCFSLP

For `NCC(c1ccccc1Cl)N1CCOCC1` (stereo not given), the pIC50 on Dipeptidyl peptidase 4 [1] is 4.34.
For `NC(=O)[C@@H]1Cc2ccccc2CN1C(=O)C[C@H](N)Cc1ccccc1F`, on Dipeptidyl peptidase 4 [2], the negative-log IC50 (pIC50) is 7.64. The compound further yielded an inhibition in test [3] of 60%.
Take `NCC1(c2ccccc2)CCCC1`: the negative logarithm of the IC50 (pIC50) against Dipeptidyl peptidase 4 [1] was 4.52.
In turn, `N[C@@H](CC(=O)N1CCC[C@H]1CNC(=O)c1ccccc1)Cc1ccccc1F` showed a pIC50 against Dipeptidyl peptidase 4 [1] of 6.39.
